This note sets out measurements from patent US4981861A, “Tricyclic imidazole derivatives” (Hoffmann-La Roche Inc., priority 1984, dated 1991).

The structures appear in SMILES notation. Bounds are passed on as bounds.

For one data set, the system named is lesions of the stomach. Briefly: anti-ulcer activity (protection from indomethacin-induced lesions of the stomach, oral). In kind it is in vivo, male rats. The note with it: Rattus norvegicus, rats, p.o. 1 hour before and 2 hours after 20 mg/kg indomethacin p.o., dosage protecting 50% of the animals, read-out: Anti-ulcer ED 50. How it is done:
The experimental procedure described hereinafter was used to determine the anti-ulcer activity:
Groups each comprising 8 male rats with a body weight of 130-150 g are used for each dosage of a test substance. Before the beginning of the experiment the animals receive no food for 24 hours, but receive water ad libitum. Various dosages of the substances to be tested (suspended in 0.5% tragacanth) or the vehicle alone (controls) are administered twice orally, namely 1 hour before and 2 hours after the oral administration of 20 mg/kg of indomethacin. In the control animals this dosage of indomethacin leads to lesions of the stomach within 5 hours. The animals are sacrificed 6 hours after the first administration of the substance under investigation (or of the vehicle alone). The rats which remain protected from the occurrence of macroscopically visible lesions to the mucous membrane of the stomach are counted. The ED is that dosage of a test substance at which 50% of the animals are protected from the occurence of such lesions.

For another data set, the system named is gastric acid secretion. Briefly: gastric acid secretion-inhibiting activity (4-methylhistamine-stimulated, Heidenhain pouch, oral). In kind it is in vivo. The note with it: Canis lupus familiaris, conscious beagle hounds, p.o., 50% inhibition of gastric acid production caused by i.v. 4-methylhistamine, read-out: Gastric acid secretion-inhibition ED 50. How it is done:
The experimental procedure described hereinafter was used to determine the gastric acid secretion-inhibiting activity:
A part of the stomach fundus of female and male beagle hounds is separated from the remainder of the stomach in the form a pouch of the Heidenhain type (modification of the method described by Rudick et al. in J. Surgical Research 7, 383-398 (1967)). In the pouch there is fitted a steel cannula which is conducted externally through the abdominal wall. Before each experiment the animals receive no food for 18 hours, but receive water ad libitum. They are conscious and standing during the experiment and their gastric acid secretion is stimulated by the intravenous infusion of 4-methylhistamine, a selective agonist of the histamine H2 -receptors. The gastric acid production is determined in 15 minute fractions of the stomach pouch juice. As soon as the gastric acid production has a constant value, the substances to be tested are administered orally as a dry powder filled into gelatine capsules. The ED50 is that dosage of a test substance which brings about a 50% inhibition of the gastric acid production caused by 4-methylhistamine in the treated animals in comparison to the controls.

Data set [1] is described as follows: acute toxicity (single oral administration to mice). The note with it: mouse, in vivo, read-out: Toxicity LD 50. From the text:
In the following Table there are given for a series of compounds of formula I the results of the testing with respect to their anti-ulcer activity and to their gastric secretion-inhibiting activity. Moreover, this Table contains data concerning the acute toxicity (LD50 in the case of single oral administration to mice).

Consider `CON=C1C(C)(C)c2cc3nc([S+]([O-])Cc4nccc(OC)c4C)[nH]c3cc2C1(C)C` (stereo not drawn) [H, 5,7-dihydro-2-[[(4-methoxy-3-methyl-2-pyridyl)methyl]sulfinyl]-5,5,7,7-tetramethylindeno[5,6-d]imidazol-6(lH)-one 0-methyl oxime], for which the values for the ED50 in the data set with lesions of the stomach and in the data set with gastric acid secretion were 5 mg/kg and 7.78 mg/kg, respectively. Further, in data set [1], the LD50 lay within 1250 to 2500 mg/kg.

For the compound `COc1ccnc(C[S+]([O-])c2nc3cc4c(cc3[nH]2)C(C)(C)C(=O)C4(C)C)c1C` (stereo not drawn) [D, 5,7-dihydro-2-[[(4-methoxy-3-methyl-2-pyridyl)-methyl]sulfinyl]-5,5,7,7-tetramethylindeno[5,6-d]imidazol-6(lH)-one], the ED50 is 1.3 mg/kg with lesions of the stomach and 3.59 mg/kg in the data set on gastric acid secretion. Also, the LD50 in data set [1] was > 5000 mg/kg.

Take `CON=C1C(C)(C)c2cc3nc(SCc4nccc(OC)c4C)[nH]c3cc2C1(C)C` [I, 5,7-dihydro-2-[[(4-methoxy-3-methyl-2-pyridyl)methyl]thio]-5,5,7,7-tetramethylindeno[5,6-d]imidazol-6(lH)-one 0-methyl oxime]: the values for the ED50 in the data set on lesions of the stomach and in the data set with gastric acid secretion were 4 mg/kg and 2.25 mg/kg, respectively. Moreover, the LD50 in data set [1] was 1250 to 2500 mg/kg.

Take `COc1c(C)cnc(CSc2nc3cc4c(cc3[nH]2)C(C)(C)C(=O)C4(C)C)c1C` [A, 5,7-dihydro-2-[[(4-methoxy-3,5-dimethyl-2-pyridyl)-methyl]thio]-5,5,7,7-tetramethylindeno[5,6-d]imidazol-6(lH)-one]: the ED50 stood at 2 mg/kg in the data set with lesions of the stomach and 4.88 mg/kg with gastric acid secretion. The LD50 in data set [1] was > 5000 mg/kg.

With `COc1c(C)cnc(C[S+]([O-])c2nc3cc4c(cc3[nH]2)OCO4)c1C` (stereo not drawn) [F, 6-[[(4-methoxy-3,5-dimethyl-2-pyridyl)methyl]sulfinyl]-5H-1,3-dioxolo[4,5-f]benzimidazole], the figures for the ED50 with lesions of the stomach and with gastric acid secretion were 6 mg/kg and 1.4 mg/kg, respectively. In data set [1], the LD50 is > 5000 mg/kg.

For `COc1ccnc(CSc2nc3cc4c(cc3[nH]2)C(C)(C)C(=O)C4(C)C)c1C` [C, 5,7-dihydro-2-[[(4-methoxy-3-methyl-2-pyridyl)methyl]thio]-5,5,7,7-tetramethylindeno[5,6-d]imidazol-6(lH)-one], the ED50 with lesions of the stomach turned out to be 1.2 mg/kg; in the data set with gastric acid secretion it was 2.56 mg/kg. For the same compound, in data set [1], the LD50 is > 5000 mg/kg.

As to `COc1ccnc(C[S+]([O-])c2nc3cc4c(cc3[nH]2)OCO4)c1C` (stereo not drawn) [E, 6-[[(4-methoxy-3-methyl-2-pyridyl)methyl]sulfinyl]-5H-1,3-dioxolo[4,5-f]benzimidazole], the ED50 in the data set on lesions of the stomach stood at 4 mg/kg; in the data set with gastric acid secretion, 1.79 mg/kg. For the same compound, the LD50 in data set [1] was > 5000 mg/kg.

In the case of `COc1c(C)cnc(C[S+]([O-])c2nc3cc4c(cc3[nH]2)C(C)(C)C(=O)C4(C)C)c1C` (stereo not drawn) [B, 5,7-dihydro-2-[[(4-methoxy-3,5-dimethyl-2-pyridyl)-methyl]sulfinyl]-5,5,7,7-tetramethylindeno[5,6-d]imidazol-6(lH)-one], the results for the ED50 with lesions of the stomach and in the data set on gastric acid secretion were 2.3 mg/kg and 5.44 mg/kg, respectively. In addition, in data set [1], the LD50 was > 5000 mg/kg.
